According to US11951094B2, “TLR2 modulator compounds, pharmaceutical compositions and uses thereof” (Axial Therapeutics, Inc., priority 2020, dated 2024):

Key:
[1] = target: T1, TLR2 (Mus musculus, UniProt Q9QUN7); assay: TLR2 functional assay, cytokine release from RAW 264.7 mouse macrophage cell line; format: cell-based; conditions: average of all runs
T1 construct: endogenous in cells; host or cells: RAW 264.7
Procedure: Cells of the immune system respond to TLR agonists in part by secreting cytokines. Functional assays for TLR2 agonists measure cytokine release from purified immune cells or immortalized cell lines derived from immune cells. Cytokine release is measured by standard ELISA approaches or multiplexed analysis using the Meso Scale Discovery (MSD) platform.
Purified primary human peripheral blood mononuclear cells or RAW 264.7 mouse macrophage cell line cells are plated at approximately 40,000 cells per well. Cells are treated with agonist compounds and assays 6-24 hours post-treatment for cytokines released into the cell culture media.
Following assay measurements utilizing either HEK-Blue detection or cytokine release, all data is analyzed with the GraphPad Prism8 statistical package to determine EC50, binding and activity metrics for the TLR2 modulators.
Numerous cell lines derived from various cell types can respond to TLR2 agonists with stereotyped cytokine and chemokine secretion. In particular, cell lines derived from macrophages respond robustly to TLR2 agonists by secreting a wide array of cytokines, including (but not limited to) TNF-alpha, IL-1, IL-10 and IL-12. The human monocytic cell line THP-1, the mouse macrophage line RAW-264.7, and the rat macrophage line NR8383 were used. For each assay, the respective cell lines were plated into 96-well plates overnight and then treated the following day with various TLR2-engaging compounds at varying concentrations. The next day, supernatants were collected and assayed by multiplex immunodetection for cytokines released (MSD detection kits for respective species).
Data provided in Table 5 is generated using protocols described in Example 45 and 46.

[2] = target: TLR2 (Homo sapiens, UniProt O60603); assay: TLR2 agonist screening assay, HEK-Blue TLR2 reporter cell line (NF-kB-driven SEAP, absorbance at 600 nm); format: cell-based; design: host or cells: HEK-293 (HEK-Blue TLR2 reporter cell line); conditions: HEK-Blue TLR2 reporter cells, agonist mode; average of all runs (Table 4)
Method in brief: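 EC50 values come from dilution series of agonist on TLR2-transfected HEK-293 reporter cells carrying an NF-kB-SEAP construct. Cells sat overnight with compound in substrate-containing Detection medium at 1% DMSO, and secreted phosphatase activity was quantified as absorbance at 600 nm.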

T1 sequence (Q9QUN7 25-784): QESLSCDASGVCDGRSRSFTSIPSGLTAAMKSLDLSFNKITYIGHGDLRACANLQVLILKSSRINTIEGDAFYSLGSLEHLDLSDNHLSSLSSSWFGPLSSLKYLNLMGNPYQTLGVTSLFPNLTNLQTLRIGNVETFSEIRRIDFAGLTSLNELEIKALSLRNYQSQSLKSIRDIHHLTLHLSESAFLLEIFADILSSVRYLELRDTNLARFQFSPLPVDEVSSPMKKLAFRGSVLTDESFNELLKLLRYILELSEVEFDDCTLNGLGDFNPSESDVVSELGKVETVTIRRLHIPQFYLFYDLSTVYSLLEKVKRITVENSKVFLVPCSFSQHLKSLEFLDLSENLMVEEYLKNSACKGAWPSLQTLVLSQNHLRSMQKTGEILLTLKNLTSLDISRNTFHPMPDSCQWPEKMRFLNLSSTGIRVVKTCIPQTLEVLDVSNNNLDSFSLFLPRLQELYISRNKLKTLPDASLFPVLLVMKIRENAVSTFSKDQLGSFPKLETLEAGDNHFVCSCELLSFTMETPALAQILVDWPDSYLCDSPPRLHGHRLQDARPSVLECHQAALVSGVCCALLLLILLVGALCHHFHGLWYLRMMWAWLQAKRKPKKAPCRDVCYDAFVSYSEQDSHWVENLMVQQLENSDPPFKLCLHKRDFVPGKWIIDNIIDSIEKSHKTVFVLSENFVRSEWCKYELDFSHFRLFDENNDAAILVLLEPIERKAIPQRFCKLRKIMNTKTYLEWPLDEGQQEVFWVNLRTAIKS
Sequence of TLR2 (Homo sapiens, UniProt O60603) (O60603 21-784): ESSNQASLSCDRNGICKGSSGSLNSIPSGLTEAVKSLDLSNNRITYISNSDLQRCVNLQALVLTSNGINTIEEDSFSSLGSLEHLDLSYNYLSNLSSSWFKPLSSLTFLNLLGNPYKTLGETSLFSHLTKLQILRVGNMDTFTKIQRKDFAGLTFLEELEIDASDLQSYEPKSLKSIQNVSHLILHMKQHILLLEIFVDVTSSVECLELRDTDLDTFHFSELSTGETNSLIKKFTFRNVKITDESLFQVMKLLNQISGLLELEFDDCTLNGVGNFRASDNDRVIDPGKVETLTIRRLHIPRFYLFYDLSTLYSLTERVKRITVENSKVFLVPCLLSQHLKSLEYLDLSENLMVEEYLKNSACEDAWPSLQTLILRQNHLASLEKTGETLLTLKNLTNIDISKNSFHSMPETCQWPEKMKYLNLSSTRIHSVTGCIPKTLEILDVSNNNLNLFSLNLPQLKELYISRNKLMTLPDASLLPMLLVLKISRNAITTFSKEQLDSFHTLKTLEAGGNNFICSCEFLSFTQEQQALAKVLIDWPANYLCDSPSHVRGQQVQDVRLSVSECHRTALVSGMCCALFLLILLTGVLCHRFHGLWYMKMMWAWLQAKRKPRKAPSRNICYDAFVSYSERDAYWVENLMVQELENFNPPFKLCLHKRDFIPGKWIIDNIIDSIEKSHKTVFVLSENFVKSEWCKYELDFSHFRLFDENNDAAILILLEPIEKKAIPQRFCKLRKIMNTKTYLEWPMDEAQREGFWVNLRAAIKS

| Structure (SMILES) | EC50 [1] [nM] | EC50 [2] [nM] |
| --- | --- | --- |
| CCCCCCCCCCCCCNC(=O)N[C@H]1CN(C(=O)c2ccc(C(=O)N3C[C@@H](C(=O)N[C@H]4C[C@@H]4c4ccccc4)[C@H](C(=O)N[C@H]4C[C@@H]4c4ccccc4)C3)cc2)C[C@H]1OC [Compound 210, (3S,4S)-1-(4-((3R,4S)-3-methoxy-4-(3-tridecylureido)pyrrolidine-1-carbonyl)benzoyl)-N3,N4-bis((1S,2R)-2-phenylcyclopropyl)pyrrolidine-3,4-dicarboxamide] | > 1000 | 0.1 to 50 |
| CCCCCCCNC(=O)N[C@@H](CNC(=O)c1ccc(C(=O)N2C[C@@H](C(=O)N[C@H]3C[C@@H]3c3ccccc3)[C@H](C(=O)N[C@H]3C[C@@H]3c3ccccc3)C2)cc1)C(=O)NCCCCCC [Compound 181, (3S,4S)-1-(4-(((S)-2-(3-heptylureido)-3-(hexylamino)-3-oxopropyl)carbamoyl)benzoyl)-N3,N4-bis ((1S,2R)-2-phenylcyclopropyl) pyrrolidine-3,4-dicarboxamide] | > 1000 | 0.1 to 50 |
| CCCCCCCC(=O)N[C@@H](Cn1cc(-c2ccc(C(=O)N3C[C@@H](C(=O)N[C@H]4C[C@@H]4c4ccccc4)[C@H](C(=O)N[C@H]4C[C@@H]4c4ccccc4)C3)cc2)nn1)C(=O)NCCCCCC [Compound 219, (3S,4S)-1-(4-(1-((S)-3-(hexylamino)-2-octanamido-3-oxopropyl)-1H-1,2,3-triazol-4-yl)benzoyl)-N3,N4-bis((1S,2R)-2-phenylcyclopropyl)pyrrolidine-3,4-dicarboxamide] | 0.1 to 50 | 0.1 to 50 |
| CCCCCCCCNC(=O)[C@H](CNC(=O)c1ccc(C(=O)N2C[C@@H](C(=O)N[C@H]3C[C@@H]3c3ccccc3)[C@H](C(=O)N[C@H]3C[C@@H]3c3ccccc3)C2)cc1)NC(=O)CCCCCCCC [Compound 197, (3S,4S)-1-(4-(((S)-2-nonanamido-3-(octylamino)-3-oxopropyl)carbamoyl)benzoyl)-N3,N4-bis((1S,2R)-2-phenylcyclopropyl)pyrrolidine-3,4-dicarboxamide] | 351 to 1000 | 0.1 to 50 |
| CCCCCCCCCCCCCNC(=O)N[C@@H]1CCCN(C(=O)c2ccc(C(=O)N3C[C@@H](C(=O)N[C@H]4C[C@@H]4c4ccccc4)[C@H](C(=O)N[C@H]4C[C@@H]4c4ccccc4)C3)cc2)C1 [Compound 205, (3S,4S)—N3,N4-bis((1S,2R)-2-phenylcyclopropyl)-1-(4-((R)-3-(3-tridecylureido)piperidine-1-carbonyl)benzoyl)pyrrolidine-3,4-dicarboxamide] | > 1000 | 0.1 to 50 |
| CCCCCCCCC(=O)N[C@@H](Cn1cc(-c2ccc(C(=O)N3C[C@@H](C(=O)N[C@H]4C[C@@H]4c4ccccc4)[C@H](C(=O)N[C@H]4C[C@@H]4c4ccccc4)C3)cc2)nn1)C(=O)NCCCCCC [Compound 212, (3S,4S)-1-(4-(1-((S)-3-(hexylamino)-2-nonanamido-3-oxopropyl)-1H-1,2,3-triazol-4-yl)benzoyl)-N3,N4-bis ((1S,2R)-2-phenylcyclopropyl) pyrrolidine-3,4-dicarboxamide] | 351 to 1000 | 0.1 to 50 |
| CCCCCCCCCCCCCNC(=O)N[C@H]1CN(C(c2ccc(C(=O)N3C[C@@H](C(=O)N[C@H]4C[C@@H]4c4ccccc4)[C@H](C(=O)N[C@H]4C[C@@H]4c4ccccc4)C3)cc2)C(F)(F)F)C[C@@H]1OC (stereo partly drawn) [Compound 189, (3S,4S)—N3,N4-bis((1S,2R)-2-phenylcyclopropyl)-1-(4-(2,2,2-trifluoro-1-((3S,4S)-3-methoxy-4-(3-tridecylureido)pyrrolidin-1-yl)ethyl)benzoyl)pyrrolidine-3,4-dicarboxamide] | 351 to 1000 | 0.1 to 50 |
| CCCCCCCCCCCCCNC(=O)N[C@H]1CN(C(=O)c2ccc(C(=O)N3C[C@@H](C(=O)N[C@H]4C[C@@H]4c4ccccc4)[C@H](C(=O)N[C@H]4C[C@@H]4c4ccccc4)C3)cc2)C[C@@H]1OC [Compound 134, (3S,4S)-1-(4-((3S,4S)-3-methoxy-4-(3-tridecylureido)pyrrolidine-1-carbonyl)benzoyl)-N3,N4-bis((1S,2R)-2-phenylcyclopropyl)pyrrolidine-3,4-dicarboxamide] | 351 to 1000 | 0.1 to 50 |
